# US5229395A, “Potential anticancer agents derived from acridine” (Sloan-Kettering Institute For Cancer Research, priority 1991, dated 1993)
# Test system: mouse leukemic cells L1210
# Assay: not given
# Conditions: earlier work, U.S. Pat. No. 4,966,918; cited from earlier work
row,Compound,activity against mouse leukemic cells L1210 in tissue culture
1,"Cc1cc(O)c2c(c1)C(=O)c1cccc(O)c1C2=O [Compound 1A, chrysophanol]",practically inactive
2,"Cc1cc(O)c2c(c1)C(=O)c1cc(O)cc(O)c1C2=O [Compound 1B, emodin]",practically inactive
3,"O=C1c2cccc(O)c2C(=O)c2c(O)cc(CN(CCCl)CCCl)cc21 [Compound 3A, 3-[N,N-bis(2-chloroethyl)-amino]methyl-1,8-dihydroxy-9,10-anthraquinone]",potent inhibitory activity
4,COc1cc(O)c2c(c1)C(=O)c1cc(CN(CCCl)CCCl)cc(O)c1C2=O [Compound 3B],potent inhibitory activity

# Test system: DNA
# Assay: not given
# Conditions: Denny and Wakelin, Cancer Res., 46:1717 (1986); cited from earlier work
row,Compound,intercalation into DNA
1,COc1cc(NS(C)(=O)=O)ccc1Nc1c2ccccc2nc2ccccc12 [amsacrin],reversible

# Test system: L1210 cells
# Assay: In vivo antileukemic effect (increased life span) in female BDF1 mice inoculated with L1210 cells
# Conditions: 100 mg/kg; mice inoculated with 1.0×10^6 L1210 cells
# Description: On the other hand, the corresponding methyl carbamate ester IVc gave good ILS values of 71% and >250% at the dose levels of 100 and 200 mg/kg, respectively.
row,Compound,ILS (increased life span) [%]
1,"CNC(=O)OCc1cccc(Nc2c3ccccc3nc3ccccc23)c1 [IVc, 9-[3'-(Methylaminocarbonyloxymethyl)anilino]acridine]",71

# Same assay, conditions: 200 mg/kg; mice inoculated with 1.0×10^6 L1210 cells
row,Compound,ILS (increased life span) [%]
1,"CNC(=O)OCc1cccc(Nc2c3ccccc3nc3ccccc23)c1 [IVc, 9-[3'-(Methylaminocarbonyloxymethyl)anilino]acridine]",> 250

# Same assay, conditions: 100 and 150 mg/kg dose level; female BDF1 mice inoculated with 1.0×10^6 L1210 cells
row,Compound,ILS (increased life span) [%]
1,"OCc1ccc(Nc2c3ccccc3nc3ccccc23)cc1 [IIIc, 9-(4'-Hydroxymethyl)anilinoacridine]",29

# Test system: topoisomerse II
# Assay: not given
# Conditions: Nelson et al. 1984; Pommier et al. 1984; cited from earlier work
row,Compound,DNA cleavage mediated by topoisomerse II
1,COc1cc(NS(C)(=O)=O)ccc1Nc1c2ccccc2nc2ccccc12 [amsacrin],appears to induce DNA cleavage

# Test system: mouse leukemia L1210 cells
# Assay: Inhibitory activity against growth of mouse leukemia L1210 cells in vitro
# Format: cell-based
# Conditions: Mus musculus, L1210; quoted in text from Table 6; read-out: IC50 value
row,Compound,IC50 [nM]
1,"OCc1ccc(Nc2c3ccccc3nc3ccccc23)cc1 [IIIc, 9-(4'-Hydroxymethyl)anilinoacridine]",95

# Same assay, conditions: Table 6, acridine derivatives of formula III, growth of mouse leukemia L1210 cells; read-out: IC50
row,Compound,IC50 [nM]
1,"OCc1ccccc1Nc1c2ccccc2nc2ccccc12 [IIIa, 9-(2'-Hydroxymethyl)anilinoacridine]",43000
2,"OCc1cccc(Nc2c3ccccc3nc3ccccc23)c1 [IIIb, 9-(3'-Hydroxymethyl)anilinoacridine]",14
3,"OCc1ccc(Nc2c3ccccc3nc3ccccc23)cc1 [IIIc, 9-(4'-Hydroxymethyl)anilinoacridine]",95
4,OCCc1ccccc1Nc1c2ccccc2nc2ccccc12 [IIId],6500
5,OCCc1cccc(Nc2c3ccccc3nc3ccccc23)c1 [IIIe],6.2
6,OCCc1ccc(Nc2c3ccccc3nc3ccccc23)cc1 [IIIf],9.9
7,"Cc1ccc2nc3ccccc3c(Nc3cccc(CO)c3)c2c1 [IIIg, 9-(3'-Hydroxymethyl)anilino-2-methylacridine]",850
8,"Cc1ccc2c(Nc3cccc(CO)c3)c3ccccc3nc2c1 [IIIh, 9-(3'-Hydroxymethyl)anilino-3-methylacridine]",0.39
9,"COc1ccc2nc3ccccc3c(Nc3cccc(CO)c3)c2c1 [IIIi, 9-(3'-Hydroxymethyl)anilino-2-methoxyacridine]",3500
10,"COc1ccc2c(Nc3cccc(CO)c3)c3ccccc3nc2c1 [IIIj, 9-(3'-Hydroxymethyl)anilino-3-methoxyacridine]",0.063
11,"COc1ccc2nc3ccc(C)cc3c(Nc3cccc(CO)c3)c2c1 [IIIk, 9-(3'-Hydroxymethyl)anilino-2-methoxy-7-methylacridine]",5800
12,"COc1ccc2nc3cc(C)ccc3c(Nc3cccc(CO)c3)c2c1 [IIIl, 9-(3'-Hydroxymethyl)anilino-2-methoxy-6-methylacridine]",920
13,"COc1ccc2nc3ccc(OC)cc3c(Nc3cccc(CO)c3)c2c1 [IIIm, 9-(3'-Hydroxymethyl)anilino-2,7-dimethoxyacridine]",3400
14,"COc1ccc2c(Nc3cccc(CCO)c3)c3ccccc3nc2c1 [IIIn, 9-[3'-(β-hydroxyethyl)anilino]-3-methoxyacridine]",0.023
15,"Cc1ccc2nc3ccccc3c(Nc3ccc(CO)cc3)c2c1 [IIIo, 9-(4'-Hydroxymethyl)anilino-2-methylacridine]",120
16,"Cc1ccc2c(Nc3ccc(CO)cc3)c3ccccc3nc2c1 [IIIp, 9-(4'-Hydroxymethyl)anilino-3-methylacridine]",6.7
17,"COc1ccc2nc3ccccc3c(Nc3ccc(CO)cc3)c2c1 [IIIq, 9-(4'-Hydroxymethyl)anilino-2-methoxyacridine]",620
18,"COc1ccc2c(Nc3ccc(CO)cc3)c3ccccc3nc2c1 [IIIr, 9-(4'-Hydroxymethyl)anilino-3-methoxyacridine]",29
19,"COc1ccc2nc3ccc(C)cc3c(Nc3ccc(CO)cc3)c2c1 [IIIs, 9-(4'-Hydroxymethyl)anilino-2-methoxy-7-methylacridine]",58
20,"COc1ccc2nc3cc(C)ccc3c(Nc3ccc(CO)cc3)c2c1 [IIIt, 9-(4'-Hydroxymethyl)anilino-2-methoxy-6-methylacridine]",650
21,"COc1ccc2nc3ccc(OC)cc3c(Nc3ccc(CO)cc3)c2c1 [IIIu, 9-(4'-Hydroxymethyl)anilino-2,7-dimethoxyacridine]",3400
22,COc1ccc2c(Nc3ccc(CCO)cc3)c3ccccc3nc2c1 [IIIv],18
23,COc1ccc2nc3ccc(OC)cc3c(Nc3ccc(CCO)cc3)c2c1 [IIIw],690

# Same assay, conditions: Table 7, carbamate esters of formula IV, mouse L1210 cells in vitro; read-out: IC50
row,Compound,IC50 [nM]
1,"CNC(=O)OCc1ccccc1Nc1c2ccccc2nc2ccccc12 [IVa, 9-[2'-(Methylaminocarbonyloxymethyl)anilino]acridine]",8400
2,"CC(C)NC(=O)OCc1ccccc1Nc1c2ccccc2nc2ccccc12 [IVb, 9-[2'-(Isopropylaminocarbonyloxymethyl)anilino]acridine]",9300
3,"CNC(=O)OCc1cccc(Nc2c3ccccc3nc3ccccc23)c1 [IVc, 9-[3'-(Methylaminocarbonyloxymethyl)anilino]acridine]",4600
4,"CC(C)NC(=O)OCc1cccc(Nc2c3ccccc3nc3ccccc23)c1 [IVd, 9-[3'-(Isopropylaminocarbonyloxymethyl)anilino]acridine]",9.1
5,"CNC(=O)OCc1ccc(Nc2c3ccccc3nc3ccccc23)cc1 [IVe, 9-[4'-(Methylaminocarbonyloxymethyl)anilino]acridine]",38
6,"CC(C)NC(=O)OCc1ccc(Nc2c3ccccc3nc3ccccc23)cc1 [IVf, 9-[4'-(Isopropylaminocarbonyloxymethyl)anilino]acridine]",18
7,"CNC(=O)OCCc1cccc(Nc2c3ccccc3nc3ccccc23)c1 [IVg, 9-[3'-(β-Methylaminocarbonyloxyethyl)anilino]acridine]",5700
8,"CC(C)NC(=O)OCCc1cccc(Nc2c3ccccc3nc3ccccc23)c1 [IVh, 9-[3'-(β-Isopropylaminocarbonyloxyethyl)anilino]acridine]",0.91
9,"CNC(=O)OCCc1ccc(Nc2c3ccccc3nc3ccccc23)cc1 [IVi, 9-[4'-(β-Methylaminocarbonyloxyethyl)anilino]acridine]",3.9
10,"CC(C)NC(=O)OCCc1ccc(Nc2c3ccccc3nc3ccccc23)cc1 [IVj, 9-[4'-(β-Isopropylaminocarbonyloxyethyl)anilino]acridine]",48
11,"CNC(=O)OCc1cccc(Nc2c3ccccc3nc3cc(OC)ccc23)c1 [IVk, 9-[3'-(Methylaminocarbonyloxymethyl)anilino]-3-methoxyacridine]",1700
12,"COc1ccc2c(Nc3cccc(COC(=O)NC(C)C)c3)c3ccccc3nc2c1 [IVl, 9-[3'-(Isopropylaminocarbonyloxymethyl)anilino]-3-methoxyacridine]",890
13,"CNC(=O)OCc1cccc(Nc2c3cc(OC)ccc3nc3ccc(OC)cc23)c1 [IVm, 9-[3'-(Methylaminocarbonyloxymethyl)anilino]-2,7-dimethoxyacridine]",5000
14,"COc1ccc2nc3ccc(OC)cc3c(Nc3cccc(COC(=O)NC(C)C)c3)c2c1 [IVn, 9-[3'-(isopropylaminocarbonyloxymethyl)-anilino]-2,7-dimethoxyacridine]",4000
15,"CNC(=O)OCc1ccc(Nc2c3cc(OC)ccc3nc3ccc(OC)cc23)cc1 [IVo, 9-[4'-(Methylaminocarbonyloxymethyl)anilino]-2,7-dimethoxyacridine]",3600
16,"COc1ccc2nc3ccc(OC)cc3c(Nc3ccc(COC(=O)NC(C)C)cc3)c2c1 [IVp, 9-[4'-(Isopropylaminocarbonyloxymethyl)anilino]-2,7-dimethoxyacridine]",6600
